Test results from patent US9249147B2, “Tyrosine kinase inhibitors” (CHEMBRIDGE CORPORATION, priority 2008, dated 2016).

Tests used:
Type in all cases: biochemical
[1] = target: ALK (Homo sapiens, UniProt Q9UM73); experiment: ALK kinase assay (Kinase-Glo / AlphaScreen, purified NPM-ALK); set-up: fused to the complete intracytoplasmic portion of ALK containing the functional tyrosine kinase domain; 6xHis; made in house; host or cells: insect cells; the other entry of the earlier key: NPM1 (P06748, Nucleophosmin); conditions: Table 1; read-out: ALK IC50
[2] = target: T1, IRK (Homo sapiens, UniProt P06213); experiment: IRK (insulin receptor kinase) assay; conditions: Table 1; read-out: IRK IC50
T1 construct: 6×His- or GST-tagged kinase domain fragments of the corresponding RTKs expressed in baculovirus system; host or cells: baculovirus system
Method: (§1) To determine inhibition of several tyrosine kinases, such as IGF1R, InsR, Alk, TrkA and Jak2, kinase assays are conducted using either Kinase-Glo (Promega) or AlphaScreen (PerkinElmer) kinase assay platforms. The Kinase-Glo Luminescent Kinase Assay is a homogeneous method for measuring kinase activity by determining the amount of ATP remaining after a kinase reaction. The luminescent signal is proportional to the amount of ATP and inversely proportional to the amount of kinase activity. Tyrosine kinase PT66 AlphaScreen Assay is a high-sensitivity homogeneous, anti-phosphotyrosine antibody-mediated luminescent proximity method measuring incorporation of phosphate in synthetic poly(Glu-Tyr) substrate. The kinase preparations used consist of purified recombinant, 6×His- or GST-tagged kinase domain fragments of the corresponding RTKs expressed in baculovirus system.
(§2) Compounds with a range of concentrations 40 μM, 20 μM, 10 μM, 5 μM, 2.5 μM, 1.25 μM, 0.625 μM, 0.3125 μM, 0.15625 μM and 0.078125 μM were incubated with NPM-ALK, which was produced in insect cells as a 6×HIS-tagged fusion protein and purified using nickel-charged resin chromatography, for 30 minutes at RT in the presence of 10 μM ATP and 7.0 ng biotinylated poly-GT. A 1:1 mixture of […] and donor beads was then added to the reaction and incubated for an additional 60 minutes at RT. The assay was conducted on a MultiPROBE liquid handling workstation (PerkinElmer) in a 384-well plate format with a total reaction volume of 40 μL per well. Working stocks of all compounds were dissolved in 100% DMSO and serial dilutions of the compounds were performed using kinase buffer (50 mM Tris-HCl (pH 7.5), 5 mM MgCl2, 5 mM MnCl2, 2 mM DTT (added freshly before use), 0.01% Tween-20) containing 5% DMSO. […] Data were collected as optical readings at 520-680 nm on a Fusion™ microplate analyzer (PerkinElmer), and IC50 and Ki values calculated using PRISM3.0 software (GraphPad Software, Inc., San Diego, Calif.). The same assay was also used with minor modifications to assess the IC50 and Ki values for selected compounds against five other tyrosine kinases (IRK, IGF1R, Flt3, Abl, Src), all of which were purchased from commercial vendors. PolyGT-Biotin was bought from CIS Biointernational Cat. #61GT0BLD; ATP—from Sigma Cat. # A7699; sodium orthovanadate—from Sigma Cat. #S-6508; phosphotyrosine (PT66) assay kit from PerkinElmer Cat. #6760602M; automated workstation tips (20 μL): PerkinElmer Cat. #6000657; and OptiPlate-384 (white)—from PerkinElmer Cat. #6007299.

[3] = target: T2, IGF1R (Homo sapiens, UniProt P08069); experiment: IGF1R kinase assay; conditions: Table 1; read-out: IGF1R IC50
T2 construct: 6×His- or GST-tagged kinase domain fragments of the corresponding RTKs expressed in baculovirus system; host or cells: baculovirus system
Method: as §1, §2

T1 sequence (P06213 1023-1298 limits assumed): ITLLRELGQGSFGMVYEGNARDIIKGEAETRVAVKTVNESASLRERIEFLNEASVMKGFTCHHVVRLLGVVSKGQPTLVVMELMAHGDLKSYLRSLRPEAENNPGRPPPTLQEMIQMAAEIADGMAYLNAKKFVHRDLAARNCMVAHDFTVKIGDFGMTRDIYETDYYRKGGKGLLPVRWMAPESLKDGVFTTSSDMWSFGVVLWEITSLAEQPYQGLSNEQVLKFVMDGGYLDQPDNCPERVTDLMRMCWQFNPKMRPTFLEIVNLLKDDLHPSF
ALK, sequence (Q9UM73 with tags, fused parts or gaps): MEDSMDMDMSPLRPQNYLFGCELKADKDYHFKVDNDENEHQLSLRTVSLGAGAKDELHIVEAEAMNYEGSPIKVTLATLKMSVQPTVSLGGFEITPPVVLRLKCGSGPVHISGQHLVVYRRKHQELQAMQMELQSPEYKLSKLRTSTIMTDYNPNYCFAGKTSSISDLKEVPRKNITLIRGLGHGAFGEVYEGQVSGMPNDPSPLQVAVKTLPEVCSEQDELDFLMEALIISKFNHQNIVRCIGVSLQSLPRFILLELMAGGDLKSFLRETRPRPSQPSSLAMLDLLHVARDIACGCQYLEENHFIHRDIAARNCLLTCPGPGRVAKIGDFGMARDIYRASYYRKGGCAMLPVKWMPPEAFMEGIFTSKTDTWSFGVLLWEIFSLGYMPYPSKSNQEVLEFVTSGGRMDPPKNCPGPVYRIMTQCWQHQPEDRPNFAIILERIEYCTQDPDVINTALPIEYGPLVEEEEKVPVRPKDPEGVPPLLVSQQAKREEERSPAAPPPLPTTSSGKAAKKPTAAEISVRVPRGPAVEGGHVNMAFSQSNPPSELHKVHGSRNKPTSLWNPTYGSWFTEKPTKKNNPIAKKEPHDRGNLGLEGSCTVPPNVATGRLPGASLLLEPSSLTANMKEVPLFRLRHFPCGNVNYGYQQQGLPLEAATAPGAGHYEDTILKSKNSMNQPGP
T2 sequence (P08069 999-1274 limits assumed): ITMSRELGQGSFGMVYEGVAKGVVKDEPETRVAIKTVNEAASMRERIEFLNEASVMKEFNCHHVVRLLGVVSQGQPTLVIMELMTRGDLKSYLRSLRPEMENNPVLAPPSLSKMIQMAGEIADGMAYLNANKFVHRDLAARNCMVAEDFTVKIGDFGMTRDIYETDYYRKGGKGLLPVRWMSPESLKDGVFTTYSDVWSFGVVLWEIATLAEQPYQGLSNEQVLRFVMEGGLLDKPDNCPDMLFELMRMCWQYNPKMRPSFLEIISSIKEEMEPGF

`C[C@H](Cc1cccs1)Nc1cc[nH]c(=O)c1-c1nc2cc3c(cc2[nH]1)C(=O)N(CCCN1CCCC1)C3=O` gave an IC50 [1] greater than 1000 nM, an IC50 [2] greater than 1000 nM and an IC50 [3] greater than 1000 nM.
Compound `COc1ccc(OC)c(C[C@H](C)Nc2cc[nH]c(=O)c2-c2nc3cc4c(cc3[nH]2)CN(CCN2CCCC2)C4=O)c1` has an IC50 [1] of 100 to 250 nM, an IC50 [2] of 250 to 1000 nM and an IC50 [3] greater than 1000 nM.
Work on `C[C@@H](Cc1sccc1Cl)Nc1cc[nH]c(=O)c1-c1nc2cc3c(cc2[nH]1)CN(CCN1CCCC1)C3=O` yielded an IC50 [1] of 10 to 100 nM, an IC50 [2] of 100 to 250 nM and an IC50 [3] of 100 to 250 nM.
With `CCS(=O)(=O)CCN1CCC(N2Cc3cc4nc(-c5c(N[C@@H](C)Cc6cccs6)cc[nH]c5=O)[nH]c4cc3C2=O)CC1` the IC50 [1] was 100 to 250 nM, the IC50 [2] was 100 to 250 nM and the IC50 [3] was 250 to 1000 nM.
For `C[C@@H](Cc1ccccc1Cl)Nc1cc[nH]c(=O)c1-c1nc2cc3c(cc2[nH]1)CN(CCN1CCCC1)C3=O`, the IC50 [1] was 250 to 1000 nM, the IC50 [2] was 100 to 250 nM and the IC50 [3] was greater than 1000 nM.
Compound `C[C@@H](Cc1cc(F)cc(F)c1F)Nc1cc[nH]c(=O)c1-c1nc2cc3c(cc2[nH]1)CN(CCN1CCOCC1)C3=O` has an IC50 [1] of 10 to 100 nM, an IC50 [2] greater than 1000 nM and an IC50 [3] of 250 to 1000 nM.
`C[C@@H]1CCCN1CCN1Cc2cc3[nH]c(-c4c(N[C@@H](C)Cc5cc(F)cc(F)c5F)cc[nH]c4=O)nc3cc2C1=O` [drawing 340] showed an IC50 [1] of less than 10 nM, an IC50 [2] of 250 to 1000 nM and an IC50 [3] greater than 1000 nM.
With `C[C@H](Cc1cccs1)Nc1cc[nH]c(=O)c1-c1nc2cc3c(cc2[nH]1)C(=O)N(CCCN1CCCC1)C3` the IC50 [1] was greater than 1000 nM, the IC50 [2] was 250 to 1000 nM and the IC50 [3] was greater than 1000 nM.
In the case of `Cc1ccc(F)cc1C[C@H](C)Nc1cc[nH]c(=O)c1-c1nc2cc3c(cc2[nH]1)C(=O)N(CCN(C)C)C3=O`, the IC50 [1] is reported as 100 to 250 nM, the IC50 [2] is reported as greater than 1000 nM and the IC50 [3] is reported as 100 to 250 nM.
`CC(Cc1ccccc1F)Nc1cc[nH]c(=O)c1-c1nc2cc3c(cc2[nH]1)C(=O)N(CCCN1CCCC1)C3` (stereo not drawn) was tested, and the IC50 [1] was 100 to 250 nM, the IC50 [2] was greater than 1000 nM and the IC50 [3] was 100 to 250 nM.
`Cc1ccc(C(F)(F)F)cc1C[C@H](C)Nc1cc[nH]c(=O)c1-c1nc2cc3c(cc2[nH]1)CN(CCN1CCOCC1)C3=O` gave an IC50 [1] of 250 to 1000 nM, an IC50 [2] greater than 1000 nM and an IC50 [3] greater than 1000 nM.
In the case of `C[C@@H](Cc1cc(F)cc(F)c1F)Nc1cc[nH]c(=O)c1-c1nc2cc3c(cc2[nH]1)CN(CCN1CCCC1)C3=O` [drawing 327], the IC50 [1] is reported as 10 to 100 nM, the IC50 [2] is reported as 250 to 1000 nM and the IC50 [3] is reported as 250 to 1000 nM.
Compound `CC(Cc1cccs1)Nc1cc[nH]c(=O)c1-c1nc2cc3c(cc2[nH]1)C(=O)N(C1CCN(C)CC1)C3=O` (stereo not drawn) has an IC50 [1] of 250 to 1000 nM, an IC50 [2] greater than 1000 nM and an IC50 [3] greater than 1000 nM.
`Cc1ccc(C(F)(F)F)cc1C[C@H](C)Nc1cc[nH]c(=O)c1-c1nc2cc3c(cc2[nH]1)CN(CCN(C)C)C3=O` was tested, and the IC50 [1] was 250 to 1000 nM, the IC50 [2] was 250 to 1000 nM and the IC50 [3] was 100 to 250 nM.
`Cc1ccc(F)cc1C[C@H](C)Nc1cc[nH]c(=O)c1-c1nc2cc3c(cc2[nH]1)CNC3=O` gave an IC50 [1] of 10 to 100 nM, an IC50 [2] greater than 1000 nM and an IC50 [3] of 250 to 1000 nM.
In the case of `Cc1ccc(F)cc1C[C@H](C)Nc1cc[nH]c(=O)c1-c1nc2cc3c(cc2[nH]1)CN(CCN1CCC[C@H]1C)C3=O` [drawing 339], the IC50 [1] is reported as 10 to 100 nM, the IC50 [2] is reported as 250 to 1000 nM and the IC50 [3] is reported as greater than 1000 nM.
`Cc1ccsc1C[C@H](C)Nc1cc[nH]c(=O)c1-c1nc2cc3c(cc2[nH]1)CN(CCN1CCC[C@H]1C)C3=O` was tested, and the IC50 [1] was 10 to 100 nM, the IC50 [2] was 100 to 250 nM and the IC50 [3] was 250 to 1000 nM.
Compound `Cc1ccc(C(F)(F)F)cc1C[C@H](C)Nc1cc[nH]c(=O)c1-c1nc2cc3c(cc2[nH]1)CN(CCN1CCCC1)C3=O` has an IC50 [1] greater than 1000 nM, an IC50 [2] of 250 to 1000 nM and an IC50 [3] greater than 1000 nM.
`Cc1ccc(N(C)C)cc1C[C@H](C)Nc1cc[nH]c(=O)c1-c1nc2cc3c(cc2[nH]1)CN(CCN1CCCC1)C3=O` showed an IC50 [1] greater than 1000 nM, an IC50 [2] greater than 1000 nM and an IC50 [3] greater than 1000 nM.
Compound `C[C@H](Cc1cccs1)Nc1cc[nH]c(=O)c1-c1nc2c(Cl)c3c(cc2[nH]1)C(=O)N(C1CCN(C)CC1)C3=O` has an IC50 [1] greater than 1000 nM, an IC50 [2] greater than 1000 nM and an IC50 [3] greater than 1000 nM.
Work on `COc1ccc(C)c(C[C@H](C)Nc2cc[nH]c(=O)c2-c2nc3cc4c(cc3[nH]2)CN(CCN2CCCC2)C4=O)c1` yielded an IC50 [1] of 10 to 100 nM, an IC50 [2] of 250 to 1000 nM and an IC50 [3] greater than 1000 nM.
